Here are results for two molecules from EP3660147A1, “PROCESS FOR SELECTIVE SYNTHESIS OF 4-HYDROXYISOPHORONE AND 4-KETOISOPHORONE BY FUNGAL PEROXYGENASES” (Consejo Superior de Investigaciones Científicas (CSIC), priority 2018, dated 2020).

Values joined by “and” are separate entries in the source; they are usually repeats but may differ in a detail not shown here. Equal entries are not always repeated.

Data set [1] has as its system Chaetomium globosum unspecific peroxygenase CglUPO, wild-type, SEQ ID NO 1. As to the kind of experiment: Enzyme kinetics of isophorone hydroxylation (GC-MS product quantification). The format is biochemical. Particulars: 6.25-6400 µM substrate, 100 nM enzyme, 0.5 mM H2O2, 3 min, mean of three replicates with standard errors. An excerpt:
(§1) AaeUPO (isoform II, 46 kDa), the first UPO described in 2004 (R. Ullrich and M. Hofrichter, FEBS Lett. 2005, 579, 6247-6250), is a wild-type (i.e. non-recombinant) peroxygenase purified from cultures of A. aegerita TM-A1, grown in soybean-peptone medium. MroUPO is another wild-type peroxygenase (32 kDa) purified from cultures of M. rotula DSM-25031 (German Collection of Microorganisms and Cell Cultures, Braunschweig). CglUPO (36 kDa) is a third wild-type peroxygenase recently purified from cultures of C. globosum DSM-62110.
Reactions were carried out with 6.25-6400 µM substrate and 100 nM enzyme. They were initiated adding 0.5 mM H2O2 and stopped by vigorous shaking in 5 mM sodium azide. Reaction times in which the reaction velocity was linear were previously selected: 5 min for AaeUPO, 3 min for CglUPO and 1 min for rHinUPO. All reactions were performed in triplicates. Product quantification was carried out by GC-MS using external standard curves, and kinetic parameters - turnover number (kcat), Michaelis constant (Km) and catalytic efficiency (kcat/Km) - were obtained by fitting the data to the Michaelis-Menten equation, or the corresponding variation of this equation when substrate inhibition is occurring, using SigmaPlot (Systat Softwarwe Inc., San Jose, CA, USA). […]

Data set [2] deals with Humicola insolens unspecific peroxygenase rHinUPO, recombinant protein, SEQ ID NO 2. The description is as above. The format is biochemical. Particulars: 6.25-6400 µM substrate, 100 nM enzyme, 0.5 mM H2O2, 1 min, mean of three replicates with standard errors. From the text: The rCciUPO (44 kDa) and rHinUPO recombinant enzymes were provided by Novozymes A/S. rCciUPO corresponds to the protein model 7249 from the sequenced C. cinerea genome available at the JGI (http://genome.jgi.doe.gov/Copci1) used in several studies (E. D. Babot, J. C. del Río, L. Kalum, A. T. Martínez and A. Gutiérrez, Biotechnol. Bioeng. 2013, 110, 2332; E. D. Babot, J. C. del Río, M. Cañellas, F. Sancho, F. Lucas, V. Guallar, L. Kalum, H. Lund, G. Gröbe, K. Scheibner, R. Ullrich, M. Hofrichter, A. T. Martínez and A. Gutiérrez, Appl. Environ. Microbiol. 2015, 81, 4130-4142; E. D. Babot, J. C. del Río, L. Kalum, A. T. Martínez and A. Gutiérrez, ChemCatChem 2015, 7, 283-290). The rHinUPO sequence has been more recently reported (Patent US 9908860 B2) and used for oxyfunctionalizations that are not catalyzed by other UPOs. Both UPOs were expressed in Aspergillus oryzae (patent WO/2008/119780).
Reactions were carried out with 6.25-6400 µM substrate and 100 nM enzyme. […] Product quantification was carried out by GC-MS using external standard curves, and kinetic parameters - turnover number (kcat), Michaelis constant (Km) and catalytic efficiency (kcat/Km) - were obtained by fitting the data to the Michaelis-Menten equation, or the corresponding variation of this equation when substrate inhibition is occurring, using SigmaPlot (Systat Softwarwe Inc., San Jose, CA, USA). […]

Data set [3] deals with CYP102A1 variants. The settings on record: isophorone hydroxylation; when decoy molecules were used; range over variants; cited from earlier work.
Substrate in data set [4]: CC1=CC(=O)CC(C)(C)C1
As to the kind of experiment: Enzyme kinetics of isophorone hydroxylation (GC-MS product quantification). The format is biochemical, Agrocybe aegerita. The settings on record: other: isophorone hydroxylation; 6.25-6400 µM substrate, 100 nM enzyme, 0.5 mM H2O2, 5 min; mean of three replicates with standard errors.
Excerpt: as §1
Reactions were carried out with 6.25-6400 µM substrate and 100 nM enzyme. They were initiated adding 0.5 mM H2O2 and stopped by vigorous shaking in 5 mM sodium azide. Reaction times in which the reaction velocity was linear were previously selected: 5 min for AaeUPO, 3 min for CglUPO and 1 min for rHinUPO. All reactions were performed in triplicates. Product quantification was carried out by GC-MS using external standard curves, and kinetic parameters - turnover number (kcat), Michaelis constant (Km) and catalytic efficiency (kcat/Km) - were obtained by fitting the data to the Michaelis-Menten equation, or the corresponding variation of this equation when substrate inhibition is occurring, using SigmaPlot (Systat Softwarwe Inc., San Jose, CA, USA).
The analyses were performed with a Shimadzu GC-MS QP 2010 Ultra system, using a fused-silica DB-5HT capillary column (30 m × 0.25 mm internal diameter, 0.1 µm film thickness) from J&W Scientific. The oven was heated from 50 °C (1.5 min) to 90 °C (2 min) at 30 °C min^-1, and then from 90 °C to 250 °C (15 min) at 8 °C min^-1. The injection was performed at 250 °C and the transfer line was kept at 300 °C. Compounds were identified by comparing their mass spectra and retention times with those of the available authentic standards and with the NIST library.

Take `CC1=CC(=O)CC(C)(C)C1` [isophorone, 3,5,5-Trimethyl-2-cyclohexen-1-one]: in data set [1], the Km (usually the concentration of substrate that gives half-maximal velocity) came to 243 ± 19.8 µM; the kcat – broadly, the number of substrate molecules converted per active site and unit of time at saturation – was 4.4 s⁻¹ and 3.8 ± 0.1 s⁻¹. In data set [2], the Km is 288 ± 39.9 µM and the kcat came out at 23.3 ± 1.4 s⁻¹. Moreover, in data set [3], the Km was 380 to 440 µM and the turnover numbers is 2.5 to 5.5 s⁻¹.

B1: Agrocybe aegerita unspecific peroxygenase AaeUPO (isoform II), wild-type, SEQ ID NO 3 (Cyclocybe aegerita) (protein)
chain: EPGLPPGPLENSSAKLVNDEAHPWKPLRPGDIRGPCPGLNTLASHGYLPRNGVATPVQIINAVQEGLNFDNQAAVFATYAAHLVDGNLITDLLSIGRKTRLTGPDPPPPASVGGLNEHGTFEGDASMTRGDAFFGNNHDFNETLFEQLVDYSNRFGGGKYNLTVAGELRFKRIQDSIATNPNFSFVDFRFFTAYGETTFPANLFVDGRRDDGQLDMDAARSFFQFSRMPDDFFRAPSPRSGTGVEVVIQAHPMQPGRNVGKINSYTVDPTSSDFSTPCLMYEKFVNITVKSLYPNPTVQLRKALNTNLDFFFQGVAAGCTQVFPYGRD
notes: is a wild-type (i.e. non-recombinant) peroxygenase purified from cultures of A. aegerita TM-A1; made in house; host or cells: Agrocybe aegerita TM-A1 cultures (native producer, non-recombinant)
For B1, in data set [4], the Km was 1381.3 ± 196.7 µM, the kcat is 20.1 ± 1.1 s⁻¹ and the kcat/Km is on record as 1.4±0.1 x 10^4 M^-1·s^-1.
